Measurements from PubChem BioAssay (NCI).
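Interpolation was linear, between the two tested concentrations surrounding the appropriate level; five concentrations were tested over 48 hours in 96-well plates. At the GI50, growth is halved. The concentration for full growth arrest is given as TGI.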

Key:
Test in all cases: NCI-60 cell line screen, 48 h
[1] = test system: HOP-62 NSCLC
[2] = test system: BT-549 breast
[3] = test system: UACC-62 melanoma
[4] = test system: HCT-15 colon
[5] = test system: SNB-75 CNS
[6] = test system: SK-MEL-28 melanoma
[7] = test system: SN12C renal
[8] = test system: MOLT-4 leukemia

Structure (SMILES) | TGI [1] [µM] | TGI [2] [µM] | TGI [3] [µM] | TGI [4] [µM] | TGI [5] [µM] | TGI [6] [µM] | TGI [7] [µM] | TGI [8] [µM] | GI50 [3] [µM] | GI50 [1] [µM] | GI50 [2] [µM]
Cn1c(-c2cccs2)cc(-c2cccs2)c1-c1cccs1 | > 100 | > 100 | > 100 | > 100 | > 100 | > 100 | > 100 | > 100 |  |  | 
CC1=NN(c2ccccc2)C2(C1)C(Cl)C(=O)N2c1nc2ccccc2s1 (stereo not drawn) | 82.6 | > 100 | > 100 | > 100 | > 100 | > 100 | > 100 | 78.6 |  |  | 
Cc1ccc2c(c1)C(=O)C1(C2)Cc2c(C)cccc2C1=O (stereo not drawn) | > 100 | > 100 | > 100 | > 100 | > 100 | > 100 | > 100 | > 100 |  |  | 
CCOC(=O)CC[C@H](N)C(=O)N[C@@H](Cc1ccc(N(CCCl)CCCl)cc1)C(=O)OCC | 9.94 | 22.3 | 1.84 | 3.86 | 4.44 | 2.38 | 9.22 | 3.61 |  |  | 
Cc1sc2nc(N(C)C)oc(=O)c2c1C | > 100 | 49.1 | > 100 | > 100 | > 100 | > 100 | > 100 | > 100 |  |  | 
O=[N+]([O-])/C(C(Cl)=C(Cl)Cl)=C1\Nc2ccc([N+](=O)[O-])cc2N1 | > 100 | > 100 | > 100 | > 100 | > 100 | > 100 | > 100 | > 100 |  |  | 
CC(=O)Nc1ccc(-c2nc3ccccc3s2)cc1Br | 56.7 | > 100 | > 100 | > 100 | 78 | > 100 | > 100 | > 100 |  |  | 
C=CCN1C(=O)/C(=C/c2ccc(Cl)cc2)N=C1SC/C=C/C | > 100 | > 100 | > 100 | > 100 | > 100 | > 100 | 71.1 | 43.8 |  |  | 
O=C(/C=C/c1cccc([N+](=O)[O-])c1)N1CCN(CCOC(c2ccccc2)c2ccccc2)CC1 | > 100 | > 100 | > 100 | > 100 | > 100 | 64.2 | > 100 | 27.4 |  |  | 
O=C(CSc1ncccn1)N/N=C/c1ccccc1OCc1ccccc1 | 83.1 | 70.4 | 50.4 | 65.1 | 67.7 | > 100 | 72.6 | 65.8 |  |  | 
CC12Nc3c(Cl)cc(Cl)cc3N1C(=O)c1ccccc12 (stereo not drawn) | > 100 | > 100 | > 100 | > 100 | > 100 | > 100 | > 100 | > 100 |  |  | 
COC(=O)c1ccccc1/C=C1\Cc2c(ccc3c2CCC3)C1=O | > 100 | > 100 | > 100 | > 100 | > 100 | > 100 | > 100 | > 100 |  |  | 
C[N+]12CCCCC1C(COc1cccc3cccnc13)CCC2 (stereo not drawn) | > 100 | > 100 | > 100 | > 100 | > 100 | > 100 | > 100 | > 100 |  |  | 
COc1cccc(Nc2nc(C)c([N+](=O)[O-])c(Nc3cccc(OC)c3)n2)c1 | 46.2 | 8.14 | 38.8 | > 100 | 4.73 | > 100 | > 100 | 30.2 |  |  | 
O=C1CC(Br)c2c(Br)sc(Br)c21 (stereo not drawn) | 39 | 36.7 | 30.8 | 34.6 | 42.4 | > 100 | 29 | 25.5 |  |  | 
CC(C)CCCC(C)[C@H]1CC[C@H]2n3c(nnc3-c3ccccc3)CCC[C@]12C (stereo partly drawn) | 37.5 | 41.7 | 27.3 | 68.9 | 35.3 | 37.1 | 27.5 | 13.2 |  |  | 
CC(C)OC(=O)c1ccc(NCC2=CC(=O)C=CC2=O)cc1 | > 100 | 26.1 | 31.4 | 25.5 | 76.3 | 33 | 26.1 | 6.14 |  |  | 
CCCN(CCc1ccc(-c2ccccc2)cc1)CCc1ccc2n[nH]nc2c1 | 26.3 | 22.2 | 24 | 21.4 | 30.6 | 13.6 | 27.4 | 19.1 |  |  | 
COc1cc2c(cc1C)NC(=O)/C2=C/c1cccnc1 | 30.5 | > 82 | 25.9 | > 78 | > 100 | > 100 | 29.5 | 24.1 | 10.1 |  | 
CN1CCC23c4c5ccc(Oc6nnnn6-c6ccccc6)c4OC2c2[nH]c4ccccc4c2CC3(O)C1C5 (stereo not drawn) | 12.8 | 36.7 | 3.52 | 6.36 | 7.66 | 4.73 | 8.67 | 5.33 |  |  | 
OCC1OC(NC(=S)NCCC(F)(F)C(F)(F)C(F)(F)C(F)(F)C(F)(F)C(F)(F)F)C(O)C(O)C1O (stereo not drawn) | > 100 | > 100 | > 100 | > 100 | > 100 | > 100 | > 100 | > 100 |  |  | 
NC(CSS(=O)(=O)O)=NC1CC2CCC1C2 (stereo not drawn) | > 100 | > 100 | > 100 | > 100 | > 100 | > 100 | > 100 | > 100 |  |  | 
CC12CCCC(C(=O)O)(C1)[C@H](C(C)(C)C(=O)O)CC2 (stereo partly drawn) | > 100 | > 100 | > 100 | > 100 | > 100 | > 100 | > 100 | > 100 |  |  | 
COC(=O)c1ccccc1/C=C1\Cc2c(C)c3c(c(C)c2C1=O)CCC3 | > 100 | > 100 | > 100 | > 100 | > 100 | > 100 | > 100 | > 100 |  |  | 
O=S(=O)(/N=S(/Nc1ccccc1)C(Cl)Cl)c1ccccc1 (stereo not drawn) | > 100 | > 100 | > 100 | > 100 | > 100 | > 100 | > 100 | > 100 |  |  | 
COc1ccccc1C[C@@H]1OC2(C=CC(=O)CC2SC(=O)c2ccccc2)O[C@H]1Cc1ccccc1OC (stereo partly drawn) | 3.03 | 2.74 | 7 | 4.75 | 3.28 | 3.22 | 6.49 | 19.5 |  |  | 
O=C1c2ccccc2-c2nnc(-c3ccc([N+](=O)[O-])cc3)cc21 | > 10 | > 10 | > 10 | > 10 | > 10 | > 10 | > 10 | > 10 |  |  | 
CC(=O)C(C(=O)c1ccc(C)cc1)[C@@H]1OC(C)(C)O[C@@H]1[C@H]1COC(C)(C)O1 (stereo partly drawn) | > 58.4 | > 32.4 | 25.8 | 37 | > 59.2 | > 77.7 | 17.3 | 22.1 |  |  | 
Cc1ccc(-c2c(C#N)c(-c3ccccc3)n(NS(=O)(=O)c3ccc(C)cc3)c(=O)c2C#N)cc1 | > 100 | > 100 | > 100 | > 100 | > 100 | > 100 | > 100 | 54.5 |  |  | 
COc1cc2c(/C=C3/C(=O)Nc4ccc(O)cc43)c(Cl)n(Cc3ccccc3)c2cc1C | 9.39 | 24.6 | > 41.9 | > 22.6 | > 100 | 44.1 | > 45.3 | > 100 |  | 0.403 | 4.67
